Test results as given in paper PMC7722985 (Biochemistry, 2015).

Columns and labels:
p300 Taz2 = conditions: cited from earlier work
[1] = tested on: Taz2 domain of p300 (A1723-K1812/C1738A, C1746A, C1789A, C1790A); experiment: ITC binding of p53; conditions: for Ka: ITC, 20 mM Tris-HCl (pH 7.2), 100 mM NaCl, 2 mM β-mercaptoethanol, 35 °C, 1:1 binding model, performed at least twice, ND = No binding was detected
CBP Taz2 = conditions: α1, α2, α3 surface of Taz2; cited from earlier work
Taz2 domain of p300 [2] = experiment: pH dependence of p53 binding to Taz2 by ITC; conditions: between pH 5.9 and 6.8; ITC at 35 °C; 100 mM Tris, 100 mM Bis-Tris, 100 mM acetate
Taz2 R1731A = experiment: ITC binding of p53; conditions: ITC at 35 °C
Taz2 S1741D = experiment: ITC binding of p53; conditions: ITC at 35 °C
Taz2 domain of p300 [3] = experiment: Salt dependence of p53; type: binding; conditions: ITC at 35 °C; similar pH values; 100 mM acetate as opposed to 100 mM NaCl
[4] = ITC at 35 °C, pH 7.2, 100 mM NaCl

In the case of “W53A/F54A double mutation of p53(25–65): W53A/F54A double mutation of p53(25–65)”, the “Taz2 binding of double mutant” value (p300 Taz2) is listed as “abrogated Taz2 binding”.

With “p53 D48N: p53(35–59) with mutation of Asp48 to asparagine” the Ka [1] was “(0.60 ± 0.08) × 10^6 M^−1”.

For “p53 E51Q: p53(35–59) with mutation of Glu51 to glutamine”, the Ka [1] was “(0.56 ± 0.13) × 10^6 M^−1”.

In the case of “p53 F54S: p53(35–59) with mutation of Phe54 to serine”, the “reduction in the association constant compared with wild-type p53 peptide” value [1, 4] is reported as 55% and the Ka [1] is reported as “(0.53 ± 0.09) × 10^6 M^−1”.

For “p53 I50A: p53(35–59) mutant peptide I50A”, the “weaker binding to Taz2 than wild-type” value [1, 4] was 3 fold and the Ka [1] was “(0.31 ± 0.01) × 10^6 M^−1”.

With “p53 L45A: p53(35–59) mutant peptide L45A” the Ka [1] was “(0.91 ± 0.04) × 10^6 M^−1”.

For “p53 M40A: p53(35–59) mutant peptide M40A”, the Ka [1] was “(1.32 ± 0.05) × 10^6 M^−1”.

For “p53 Q52E: p53(35–59) mutant peptide Q52E”, the Ka [1] was “(1.29 ± 0.35) × 10^6 M^−1”.

In the case of “p53 T55A: p53(35–59) mutant peptide T55A”, the Ka [1] is reported as “(1.16 ± 0.10) × 10^6 M^−1”.

For “p53 TAD1: first transactivation subdomain of p53 (residues 1–39)”, the “effect of phosphorylation on Taz2 binding” value (“effect of phosphorylation” for short) (p300 Taz2) is given as “increased its affinity for p300 Taz2” and the “binding to CBP Taz2” value (CBP Taz2) is given as “high affinity”.

In the case of “p53 TAD2: second transactivation subdomain of p53 (residues 40–61)”, the “effect of phosphorylation” value (p300 Taz2) is given as “unaffected by phosphorylation”, the “affinity for Taz2” value (p300 Taz2; p53 TAD2 compared with p53 TAD1) is given as “tighter than that of p53 TAD1” and the “binding to CBP Taz2” value (CBP Taz2) is given as “high affinity”.

In the case of “p53 W53Q: p53(35–59) with Trp53 mutated to glutamine (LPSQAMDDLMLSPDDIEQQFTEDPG)”, the “detectable binding to Taz2” value ([1]; ITC at 35 °C) is reported as “loss of detectable binding”.

In the case of “p53 pThr55: p53(35–59) phosphorylated at Thr55”, the Ka [1] is reported as “(1.30 ± 0.05) × 10^6 M^−1”.

With “p53(1–39): p53 TAD1, residues 1–39 [reference compound]” the “pH dependence of affinity for Taz2, pH 5.9 to 6.8” value (Taz2 domain of p300 [2]) was “not dependent upon pH between pH 5.9 and 6.8”.

For “p53(1–57): p53(1–57), both TAD subdomains”, the “overall affinity for Taz2 relative to single subdomains” value (p300 Taz2) is given as “overall affinity higher than that of either interaction alone”.

In the case of “p53(35–59): p53 TAD2 peptide, residues 35–59, synthesized by solid-phase method or expressed as GST fusion”, the “reduction in binding affinity vs wild-type Taz2” value (Taz2 R1731A) is reported as 3 fold, the “effect of Taz2 mutation on binding” value (Taz2 S1741D) is reported as “did not affect binding” and the “affinity in 100 mM acetate vs 100 mM NaCl” value (Taz2 domain of p300 [3]) is reported as “significantly higher”. For the same substance, the “effect of phosphorylation” value (p300 Taz2) was “does not significantly affect binding”.
